Assay results: patent US10618902B2, “Substituted pyrido[2,3-d]pyrimidines as inhibitors of protein kinases” (Celgene CAR LLC, priority 2013, dated 2020)
Entries after “also recorded” stand apart in the source; their conditions may differ.

Molecular target: pFGFR4 in MDA-MB-453 cells (Homo sapiens (Human), UniProt P22455, Y367C)
Assay: Washout experiment (duration of pFGFR4 inhibition)
Assay type: cell-based
Settings: 1000-2000 nM for 1 hr, washed, up to 24 hr
Experimental: The cells were allowed to settle down for 4 hrs and were then maintained in low-serum (0.1% FBS) media overnight.
The following morning, the media was removed and the cells were treated with 1000-2000 nM of test compound in low-serum media for 1 hr. The cells were washed free of test compound (3×) with PBS (Invitrogen). One set of cells was immediately lysed as indicated above as the 0 hr time point. The remaining cells were incubated with the appropriate complete growth media (10-20% FBS) for 1, 2, 4, 8, 16 (in certain circumstances) and 24 hr. DMSO (0.5%) controls were collected at all time points.

Sequence of pFGFR4 in MDA-MB-453 cells (P22455 22-802 Y367C): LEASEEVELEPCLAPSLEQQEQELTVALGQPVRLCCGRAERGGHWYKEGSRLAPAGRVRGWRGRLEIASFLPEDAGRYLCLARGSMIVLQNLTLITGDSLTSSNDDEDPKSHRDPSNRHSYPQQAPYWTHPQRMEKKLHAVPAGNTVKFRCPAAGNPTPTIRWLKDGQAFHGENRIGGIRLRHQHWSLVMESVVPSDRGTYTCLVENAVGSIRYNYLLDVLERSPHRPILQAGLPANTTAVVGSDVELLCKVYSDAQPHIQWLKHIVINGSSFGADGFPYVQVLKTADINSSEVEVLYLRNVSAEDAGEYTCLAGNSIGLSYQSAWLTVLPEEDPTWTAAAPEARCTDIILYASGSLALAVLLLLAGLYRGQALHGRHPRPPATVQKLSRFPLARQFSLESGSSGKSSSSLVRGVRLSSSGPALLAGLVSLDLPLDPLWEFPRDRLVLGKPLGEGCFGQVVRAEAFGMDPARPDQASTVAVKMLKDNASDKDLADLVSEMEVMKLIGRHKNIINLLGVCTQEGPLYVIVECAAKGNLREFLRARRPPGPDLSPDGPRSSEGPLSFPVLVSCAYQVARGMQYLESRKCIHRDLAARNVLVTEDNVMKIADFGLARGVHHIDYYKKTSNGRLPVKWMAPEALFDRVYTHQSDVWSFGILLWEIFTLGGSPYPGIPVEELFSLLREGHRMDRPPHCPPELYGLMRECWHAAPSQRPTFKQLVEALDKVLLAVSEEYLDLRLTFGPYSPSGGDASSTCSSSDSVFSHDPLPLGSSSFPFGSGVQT

SMILES | duration of action against pFGFR4 signalling after washout
CCC(=O)Nc1cccc(CN2C(=O)N(c3c(Cl)c(OC)cc(OC)c3Cl)Cc3cnc(Nc4ccccc4NC(=O)CC)nc32)c1 [Compound I-234] | does not have PDA; also recorded: does not show prolonged duration of action
C=CC(=O)NC1CCCCC1Nc1ncc2c(n1)N(Cc1cscn1)C(=O)N(c1c(Cl)c(OC)cc(OC)c1Cl)C2 (racemic) [Compound I-69] | prolonged duration of action; also recorded: prolonged inhibition of autophosphorylation of FGFR4
C=CC(=O)Nc1ccccc1Nc1ncc2c(n1)N(Cc1cccc(NC(=O)CC)c1)C(=O)N(c1c(Cl)c(OC)cc(OC)c1Cl)C2 [Compound I-1] | has PDA; also recorded: prolonged duration of action
